# From PubChem BioAssay (NCI)
#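 In this assay, cells in 96-well plates receive the compound at five concentrations for 48 hours. Endpoints are linearly interpolated between the surrounding concentrations. Abbreviation: GI50, concentration required for 50% inhibition of growth. At the TGI there is no net growth.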
# Key:
# Experiment in all cases: DTP human tumour cell line panel, 48 h
# LOX IMVI melanoma = test system: LOX IMVI melanoma
# KM12 colon = test system: KM12 colon
# CAKI-1 renal = test system: CAKI-1 renal
# HCT-116 colon = test system: HCT-116 colon
# DMS 114 small cell lung = test system: DMS 114 small cell lung
# IGROV1 ovarian = test system: IGROV1 ovarian
# SK-MEL-28 melanoma = test system: SK-MEL-28 melanoma
# HCT-15 colon = test system: HCT-15 colon
# RXF 393 renal = test system: RXF 393 renal
# M19-MEL melanoma = test system: M19-MEL melanoma
# OVCAR-3 ovarian = test system: OVCAR-3 ovarian
# SN12C renal = test system: SN12C renal
# ACHN renal = test system: ACHN renal
# TK-10 renal = test system: TK-10 renal
# XF 498 CNS = test system: XF 498 CNS
# UACC-62 melanoma = test system: UACC-62 melanoma
# MOLT-4 leukemia = test system: MOLT-4 leukemia
# HL-60(TB) leukemia = test system: HL-60(TB) leukemia
# NCI-H23 lung = test system: NCI-H23 lung
# SF-268 CNS = test system: SF-268 CNS
# SR leukemia = test system: SR leukemia
# UACC-257 melanoma = test system: UACC-257 melanoma
# HOP-62 NSCLC = test system: HOP-62 NSCLC
# RPMI-8226 leukemia = test system: RPMI-8226 leukemia
# SF-295 CNS = test system: SF-295 CNS
# A498 renal = test system: A498 renal
# DMS 273 small cell lung = test system: DMS 273 small cell lung
# KM20L2 colon = test system: KM20L2 colon
# SK-MEL-2 melanoma = test system: SK-MEL-2 melanoma
# NCI-H460 lung = test system: NCI-H460 lung
# SNB-19 CNS = test system: SNB-19 CNS
# SW-620 colon = test system: SW-620 colon
# M14 melanoma = test system: M14 melanoma
# UO-31 renal = test system: UO-31 renal
# OVCAR-8 ovarian = test system: OVCAR-8 ovarian
# NCI-H522 lung = test system: NCI-H522 lung
# 786-0 renal = test system: 786-0 renal
# LXFL 529 NSCLC = test system: LXFL 529 NSCLC
# HT29 colon = test system: HT29 colon
# DLD-1 colon = test system: DLD-1 colon
# SK-MEL-5 melanoma = test system: SK-MEL-5 melanoma
# CCRF-CEM leukemia = test system: CCRF-CEM leukemia
# U251 CNS = test system: U251 CNS
# MALME-3M melanoma = test system: MALME-3M melanoma
# A549 NSCLC = test system: A549 NSCLC
# K-562 leukemia = test system: K-562 leukemia
# COLO 205 colon = test system: COLO 205 colon
# SK-OV-3 ovarian = test system: SK-OV-3 ovarian
# EKVX NSCLC = test system: EKVX NSCLC
# OVCAR-4 ovarian = test system: OVCAR-4 ovarian
# HCC-2998 colon = test system: HCC-2998 colon
compound,measurement,setting,value
CC(C)=[CH][Sb]([Br])([CH]=C(C)C)([CH]=C(C)C)[c]1ccccc1,GI50,LOX IMVI melanoma,35.4 µM
same,TGI,LOX IMVI melanoma,> 100 µM
same,GI50,KM12 colon,6.74 µM
same,TGI,KM12 colon,> 100 µM
same,GI50,CAKI-1 renal,> 100 µM
same,TGI,CAKI-1 renal,> 100 µM
same,GI50,HCT-116 colon,13 µM
same,TGI,HCT-116 colon,47.2 µM
same,GI50,DMS 114 small cell lung,13.1 µM
same,TGI,DMS 114 small cell lung,46.3 µM
same,GI50,IGROV1 ovarian,16.9 µM
same,TGI,IGROV1 ovarian,> 100 µM
same,GI50,SK-MEL-28 melanoma,17.3 µM
same,TGI,SK-MEL-28 melanoma,> 100 µM
same,GI50,HCT-15 colon,> 100 µM
same,TGI,HCT-15 colon,> 100 µM
same,GI50,RXF 393 renal,11.4 µM
same,TGI,RXF 393 renal,57.5 µM
same,GI50,M19-MEL melanoma,6.14 µM
same,TGI,M19-MEL melanoma,> 100 µM
same,GI50,OVCAR-3 ovarian,4.32 µM
same,TGI,OVCAR-3 ovarian,67.3 µM
same,GI50,SN12C renal,25.4 µM
same,TGI,SN12C renal,> 100 µM
same,GI50,ACHN renal,36.9 µM
same,TGI,ACHN renal,> 100 µM
same,GI50,TK-10 renal,34.9 µM
same,TGI,TK-10 renal,> 100 µM
same,GI50,XF 498 CNS,24.3 µM
same,TGI,XF 498 CNS,> 100 µM
same,GI50,UACC-62 melanoma,16 µM
same,TGI,UACC-62 melanoma,97.2 µM
same,GI50,MOLT-4 leukemia,23.9 µM
same,TGI,MOLT-4 leukemia,> 100 µM
same,GI50,HL-60(TB) leukemia,3.71 µM
same,TGI,HL-60(TB) leukemia,15.6 µM
same,GI50,NCI-H23 lung,14.4 µM
same,TGI,NCI-H23 lung,45.1 µM
same,GI50,SF-268 CNS,14.5 µM
same,TGI,SF-268 CNS,58.2 µM
same,GI50,SR leukemia,18.7 µM
same,TGI,SR leukemia,> 100 µM
same,GI50,UACC-257 melanoma,6.35 µM
same,TGI,UACC-257 melanoma,> 100 µM
same,GI50,HOP-62 NSCLC,43.9 µM
same,TGI,HOP-62 NSCLC,> 100 µM
same,GI50,RPMI-8226 leukemia,2.12 µM
same,TGI,RPMI-8226 leukemia,15.7 µM
same,GI50,SF-295 CNS,20.2 µM
same,TGI,SF-295 CNS,90.1 µM
same,GI50,A498 renal,73 µM
same,TGI,A498 renal,> 100 µM
same,GI50,DMS 273 small cell lung,3.91 µM
same,TGI,DMS 273 small cell lung,31 µM
same,GI50,KM20L2 colon,15.9 µM
same,TGI,KM20L2 colon,> 100 µM
same,GI50,SK-MEL-2 melanoma,26 µM
same,TGI,SK-MEL-2 melanoma,86.7 µM
same,GI50,NCI-H460 lung,21.6 µM
same,TGI,NCI-H460 lung,> 100 µM
same,GI50,SNB-19 CNS,8.95 µM
same,TGI,SNB-19 CNS,79 µM
same,GI50,SW-620 colon,32.6 µM
same,TGI,SW-620 colon,> 100 µM
same,GI50,M14 melanoma,20.6 µM
same,TGI,M14 melanoma,82.4 µM
same,GI50,UO-31 renal,23.2 µM
same,TGI,UO-31 renal,> 100 µM
same,GI50,OVCAR-8 ovarian,29.6 µM
same,TGI,OVCAR-8 ovarian,> 100 µM
same,GI50,NCI-H522 lung,3.32 µM
same,TGI,NCI-H522 lung,13.9 µM
same,GI50,786-0 renal,43.7 µM
same,TGI,786-0 renal,> 100 µM
same,GI50,LXFL 529 NSCLC,20.3 µM
same,TGI,LXFL 529 NSCLC,> 100 µM
same,GI50,HT29 colon,20.6 µM
same,TGI,HT29 colon,> 100 µM
same,GI50,DLD-1 colon,34 µM
same,TGI,DLD-1 colon,> 100 µM
same,GI50,SK-MEL-5 melanoma,4.27 µM
same,TGI,SK-MEL-5 melanoma,21.1 µM
same,GI50,CCRF-CEM leukemia,12.8 µM
same,TGI,CCRF-CEM leukemia,46.6 µM
same,GI50,U251 CNS,16.3 µM
same,TGI,U251 CNS,74.2 µM
same,GI50,MALME-3M melanoma,6.07 µM
same,TGI,MALME-3M melanoma,> 100 µM
same,GI50,A549 NSCLC,16.6 µM
same,TGI,A549 NSCLC,> 100 µM
same,GI50,K-562 leukemia,11 µM
same,TGI,K-562 leukemia,23 µM
same,GI50,COLO 205 colon,4.52 µM
same,TGI,COLO 205 colon,19.2 µM
same,GI50,SK-OV-3 ovarian,23 µM
same,TGI,SK-OV-3 ovarian,74.6 µM
same,GI50,EKVX NSCLC,3.95 µM
same,TGI,EKVX NSCLC,> 100 µM
same,GI50,OVCAR-4 ovarian,49.3 µM
same,TGI,OVCAR-4 ovarian,> 100 µM
same,GI50,HCC-2998 colon,27.2 µM
same,TGI,HCC-2998 colon,> 100 µM
